Here are results for four compounds from paper PMC3585822, “The ancestral activation promiscuity of ADP-glucose pyrophosphorylases from oxygenic photosynthetic organisms” (BMC Evolutionary Biology, 2013).

Like-named read-outs stand apart in the source and are kept apart here.

What all share (experiment): ADP-[…]Glc synthesis from […]Glc1P, modified Hill fit
Assay [1] concerns T1, OtaS/OtaL.
T1 construct: recombinant S2L2 heterotetramer co-expressed in E. coli AC70R1-504, purified
It counts as biochemical, Ostreococcus tauri. The following applies: allosteric activator; 1 mM ATP, 1 mM Glc1P, 7 mM MgCl2, pH 8.0, 37 °C; read-out: A0.5.

For assay [2], the target named is T2, ADP-Glc PPase from Anabaena (Nostoc sp. PCC 7120 = FACHB-418, UniProt P30521).
T2 construct: gene glgC; recombinant homotetramer from E. coli AC70R1-504, purified
T2 sequence (P30521 1-429): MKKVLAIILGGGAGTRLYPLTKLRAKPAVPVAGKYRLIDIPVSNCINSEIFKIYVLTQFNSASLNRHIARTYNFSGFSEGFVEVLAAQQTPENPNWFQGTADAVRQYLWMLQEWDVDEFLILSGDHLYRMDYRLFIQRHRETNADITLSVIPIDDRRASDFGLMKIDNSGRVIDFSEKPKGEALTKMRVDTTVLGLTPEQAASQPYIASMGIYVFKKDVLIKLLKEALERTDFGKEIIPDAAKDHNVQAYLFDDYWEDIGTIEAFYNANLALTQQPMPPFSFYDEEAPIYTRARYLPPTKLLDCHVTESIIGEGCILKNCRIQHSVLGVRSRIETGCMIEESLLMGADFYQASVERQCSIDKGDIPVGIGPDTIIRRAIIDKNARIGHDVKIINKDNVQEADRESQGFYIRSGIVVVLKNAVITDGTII
It counts as biochemical. The following applies: read-out: A0.5.

Assay [3] concerns T1, OtaS/OtaL. It counts as biochemical, Ostreococcus tauri. The following applies: allosteric activator; 1 mM ATP, 1 mM Glc1P, 7 mM MgCl2, pH 8.0, 37 °C; non-catalytic OtaS with wild-type OtaL; read-out: A0.5.
Assay [4] relates to T1, OtaS/OtaL. It counts as biochemical, Ostreococcus tauri. The following applies: allosteric activator; 1 mM ATP, 1 mM Glc1P, 7 mM MgCl2, pH 8.0, 37 °C; non-catalytic OtaL with wild-type OtaS; read-out: A0.5.
A further assay concerns T3, OtaS.
T3 construct: recombinant small subunit homotetramer from E. coli AC70R1-504, purified; plasmid pMAB5 or pMAB6
It counts as biochemical, Ostreococcus tauri. The following applies: allosteric activator; 1 mM ATP, 1 mM Glc1P, 7 mM MgCl2, pH 8.0, 37 °C; read-out: A0.5.

[5] abbreviates: allosteric activator, 1 mM ATP, 1 mM Glc1P, 7 mM MgCl2, pH 8.0, 37 °C.

For `O=C(O)[C@H](O)COP(=O)(O)O` [3-PGA], the EC50 in the assay with OtaS/OtaL [1] came out at 540 µM; in assay [2], 75 µM; in the assay on OtaS/OtaL [3] it was 3 µM; with OtaS/OtaL [4], 67 µM; with OtaS it was 1200 µM.
Turning to `O=P(O)(O)OC[C@H]1OC(O)(COP(=O)(O)O)[C@@H](O)[C@@H]1O` (stereo partly shown) [FBP], the EC50 was 1100 µM in the assay with OtaS/OtaL [1]; 300 µM in assay [2] (setting [5]); 8200 µM in the assay on OtaS/OtaL [3]; 1500 µM in the assay on OtaS/OtaL [4]; 1100 µM with OtaS.
Consider `O=P(O)(O)OC[C@H]1OC(O)(CO)[C@@H](O)[C@@H]1O` (stereo partly shown) [Fru6P], for which the EC50 in the assay with OtaS/OtaL [1] is 15000 µM; in assay [2] (setting [5]) it was 1600 µM; in the assay with OtaS it was 1900 µM.
Regarding `O=P(O)(O)OC[C@H]1OC(O)[C@H](O)[C@@H](O)[C@@H]1O` (stereo partly shown) [Glc6P], the EC50 in the assay with OtaS/OtaL [1] is 75000 µM; in assay [2] (setting [5]) it was 400 µM; with OtaS, 10000 µM.
